The record followed here is ChEMBL document CHEMBL4715719, “Synthesis and biological properties of polyamine modified flavonoids as hepatocellular carcinoma inhibitors” (Eur J Med Chem, 2016).

Series [1] is described as follows: Toxicity in Kunming mouse implanted with mouse H22 cells assessed as change in mouse body weight at 10 mg/kg, iv administered for 7 consecutive days starting from day 8 post inoculation and measured after 16 days (reference value: 21 %). Type of series: organism-based. The settings on record: in vivo, 192 h, time 8 day.
Series [2] is described as follows: Toxicity in Kunming mouse implanted with mouse H22 cells assessed as change in body weight at 10 mg/kg, iv administered for 7 consecutive days starting from day 11 post inoculation and measured after 18 days (reference value: 5.2 %). The settings on record: in vivo, 192 h, time 8 day. Type of series: organism-based.
Series [3] relates to Mus musculus. As to the kind of experiment: Upregulation of phosphorylated JNK in Kunming mouse implanted with mouse H22 cells assessed as activation of p53 measured after 48 hrs in presence of aspirin by immunofluorescence analysis. Type of series: functional. The conditions noted are these: dose 10-30 µM.
Series [4] concerns HepG2. As to the kind of experiment: Antiinvasive activity against human HepG2 cells assessed as inhibition of cell invasion at 50 to 70 uM measured after 48 hrs in presence of aspirin by wound healing assay. Type of series: functional, cell-based. The conditions noted are these: dose 50-70 µM.
The subject of series [5] is H22. As to the kind of experiment: Antimetastatic activity against mouse H22 cells implanted in Kunming mouse assessed as number of metastatic focus at 10 mg/kg, iv administered for 7 consecutive days starting from day 11 post inoculation and measured after 18 days (reference value: 5.73 +/- 14.6). The conditions noted are these: time 8 day. It counts as functional.
The subject of series [6] is HepG2. As to the kind of experiment: Induction of apoptosis in human HepG2 cells assessed as activation of caspase 8 at 50 to 70 uM measured after 48 hrs by immunofluorescence assay. It counts as functional, cell-based. The settings on record: dose 50-70 µM.
Series [7] deals with HepG2. As to the kind of experiment: Antiproliferative activity against human HepG2 cells assessed as inhibition of cell proliferation at 100 uM measured after 48 hrs by MTT assay relative to control. It counts as functional.
Series [8] relates to HepG2. The series is described as follows: Induction of apoptosis in human HepG2 cells assessed as activation of caspase 3 at 50 to 70 uM measured after 48 hrs by immunofluorescence assay. It counts as functional, cell-based. The settings on record: dose 50-70 µM.
In series [9] the test system is H22. The series is described as follows: Potentiation of aspirin-induced antimetastatic activity against mouse H22 cells implanted in Kunming mouse assessed as inhibition of metastasis at 10 mg/kg, iv administered for 7 consecutive days starting from day 11 post inoculation cotreated with aspirin at 10 mg/kg and measured after 18 days relative to control. The settings on record: 192 h, time 8 day. Type of series: functional.

The test system of series [10] is Mus musculus. The series is described as follows: Downregulation of Bcl-2 in Kunming mouse implanted with mouse H22 cells at 10 to 30 uM measured after 48 hrs by immunofluorescence analysis. The settings on record: dose 10-30 µM. It counts as functional.
The nature of series [11]: Toxicity in Kunming mouse implanted with mouse H22 cells assessed mouse mortality at 10 mg/kg, iv administered for 7 consecutive days starting from day 8 post inoculation cotreated with DFMO at 200 mg/kg and measured after 16 days. The settings on record: in vivo, 192 h, time 8 day. It counts as organism-based.
Series [12] can be described thus: Antiproliferative activity against mouse H22 cells assessed as inhibition of cell proliferation measured after 48 hrs by MTT assay. Type of series: functional, cell-based.
Series [13] has as its system HepG2. As to the kind of experiment: Antiproliferative activity against human HepG2 cells assessed as inhibition of cell proliferation measured after 48 hrs in presence of 800 uM aspirin by MTT assay. It counts as functional, cell-based. The settings on record: HepG2, 48 h. A general note: Tetrazolium dyes change colour on reduction, which living cells bring about.

The subject of another series is SMMC-7721. As to the kind of experiment: Antiproliferative activity against human […] cells assessed as inhibition of cell proliferation at 30 uM measured after 48 hrs by MTT assay relative to control. It counts as functional.
Series [14] has as its system HepG2. The series is described as follows: Antiproliferative activity against human HepG2 cells assessed as inhibition of cell proliferation measured after 48 hrs by MTT assay. Type of series: functional, cell-based. The settings on record: HepG2, 48 h.
For series [15], the system named is Mus musculus. As to the kind of experiment: Downregulation of Bcl-2 in Kunming mouse implanted with mouse H22 cells at 10 to 30 uM after 48 hrs in presence of aspirin by immunofluorescence analysis. The settings on record: dose 10-30 µM. Type of series: functional.
The test system of series [16] is H22. As to the kind of experiment: Antimetastatic activity against mouse H22 cells implanted in Kunming mouse assessed as inhibition of metastasis at 10 mg/kg, iv administered for 7 consecutive days starting from day 11 post inoculation and measured after 18 days relative to control. Type of series: functional. The conditions noted are these: 192 h, time 8 day.

Series [17] concerns Mus musculus. The series is described as follows: Upregulation of phosphorylated JNK in Kunming mouse implanted with mouse H22 cells assessed as activation of p53 measured after 48 hrs by immunofluorescence analysis. Type of series: functional. The settings on record: dose 10-30 µM.

Calls of active or inactive are those of the source. The calls are words filed in the database; no cut-off is given here.

For orientation: inhibition means the percentage by which the read-out fell short of the control. For orientation: inhibition in vivo means how much of the control response was suppressed. By IC50 is commonly meant the concentration at which inhibition is half-maximal.

Turning to `Cl.Cl.NCCCNCC(=O)NCc1cccc2c(=O)cc(-c3cccc4ccccc34)oc12`, the Activity is 4% in series [1]; 3.7% in series [2]; 40.5 in the series on H22 [5]; “Non-Toxic” in series [11]; “Dose-dependent effect” with Mus musculus [17]. In addition, the outcome in the series with Mus musculus [3], in the series on HepG2 [8], in the series with Mus musculus [10] and in the series on Mus musculus [15] was Active. Also, in the series with HepG2 [4], the inhibition entry was “Active”. Besides, the outcome in the series with HepG2 [6] was inactive. Moreover, the inhibition at 100 µM with HepG2 [7] was 84.2%. For the same molecule, the inhibition in vivo at 10 mg/kg with H22 [9] was 59.9%; with H22 [16], 29.3%. Besides, the values for the IC50 (in [12]; in the series on HepG2 [13]; in the series on HepG2 [14]) were 32.1 µM, 59.2 µM and 65 µM, respectively. Also, the inhibition at 30 µM in the series with SMMC-7721 amounted to 5.1%.
